Data as given in patent US5594004A, “Compound with platelet aggregation inhibitor activity” (Meiji Seika Kabushiki Kaisha, priority 1993, dated 1997).
Structures can show the parent of a compound that is named as a salt.

Tested on: human PRP (platelet rich plasma)
Assay: Pharmacological test 1: inhibition of ADP-induced platelet aggregation in human PRP
Format: cell-based
Details: Homo sapiens, Platelet, platelet aggregation, ADP 5 μM inducer
Method: Pharmacological test 1 Inhibition of platelet aggregation
The effect of the compound according to the present invention on inhibiting the platelet aggregation was examined with human PRP (platelet rich plasma).
Nine volumes of a blood sample was taken out of the vein of a normal human with a syringe in which one volume of a 3.8% sodium citrate solution was charged. The blood sample was centrifuged at 170×g at room temperature for 10 minutes. The supernatant thus obtained was isolated as PRP. The residual blood sample that PRP had been taken out was centrifuged at 2,700×g for 15 minutes. The supernatant was then taken as platelet poor plasma (PPP).
Platelet aggregation test was conducted with an aggligometer (PAM-8C; manufactured by MEBANICKS Co., Ltd.). Compounds to be tested were dissolved in a 50% DMSO saline, a 50% methanol saline or physiological saline. The compound and PRP were preincubated for 2 minutes. The ADP (CHRONO-PAR REAGENTS 384 ADP, CHRONO-LOG Corp.) was used as an inducer in the form of a dilution with saline so that the final concentration is 5 μM.
Anti-platelet aggregation activity was obtained as an inhibition rate to platelet aggregation effect of ADP in the absence of a compound to be tested as follows: [formula] Physiological test 2 Inhibition of fibrinogen bonding to platelet GPIIb/IIIa

Structure (SMILES)	IC50
O=C(O)COc1ccc(C(=O)CNC(=O)c2cc3c(s2)CCNC3)c(OCC(=O)O)c1 [Example 25, [[4-[[[(4,5,6,7-tetrahydrothieno[3.2-c]pyridin-2-yl)carbonyl]amino]acetyl]-m-phenylene]dioxy]diacetic acid trifluoroacetate]	1500 nM
COc1cc(C(=O)CNC(=O)c2cc3c(s2)CCNC3)ccc1OCC(=O)O [Example 26, 4-[[4,5,6,7-tetrahydrothieno[3.2-c]pyridin-2-yl)carbonyl]aminoacetyl]-2-methoxyphenoxyacetic acid trifluoroacetate]	1000 nM
O=C(O)COc1ccc(C(=O)CNC(=O)c2sc3c(c2Cc2ccccc2)CNCC3)cc1OCC(=O)O [Example 28, [[4-[[[(3-benzyl-4,5,6,7-tetrahydrothieno[3.2-c]pyridin-2-yl)carbonyl]amino]acetyl]-o-phenylene]dioxy]diacetic acid trifluoroacetate]	> 10000 nM
O=C(O)COc1ccc(C(=O)CNC(=O)c2cc3c(s2)CCCNC3)cc1OCC(=O)O [Example 30, [[4-[[[(5,6,7,8-tetrahydro-4H-thieno[3.2-c]azepin-2-yl)carbonyl]amino]acetyl]-o-phenylene]dioxy]diacetic acid trifluoroacetate]	1900 nM
O=C(O)COc1ccc(C(=O)CNC(=O)c2cc3c(s2)CCNCC3)cc1OCC(=O)O [Example 31, [[4-[[[(5,6,7,8-tetrahydro-4H-thieno[2,3-d]azepin-2-yl)carbonyl]amino]acetyl]-o-phenylene]dioxy]diacetic acid trifluoroacetate]	150 nM
O=C(O)COc1ccc(C(=O)NCC(=O)c2cc3c(s2)CCNC3)cc1OCC(=O)O [Example 32, [[4-[N-[(4,5,6,7-tetrahydrothieno[3,2-c]pyridin-2-yl)carbonyl]methyl]carbamoyl]-o-phenylene]dioxy]diacetic acid trifluoroacetate]	480 nM
CCOC(=O)COc1ccc(CCNC(=O)c2cc3c(s2)CCNC3)cc1OCC(=O)OCC [Example 33, Diethyl [[4-[[2-[(4,5,6,7-tetrahydrothieno[3,2-c]pyridin-2-yl)carbonyl]amino]ethyl]-o-phenylene]dioxy]diacetate trifluoroacetate]	1700 nM
CCOC(=O)COc1ccc(C(=O)CNC(=O)c2cc3c(s2)CCNC3)cc1OCC(=O)OCC [Example 34, Diethyl [[4-[[[(4,5,6,7-tetrahydrothieno[3,2-c]pyridin2-yl)carbonyl]amino]acetyl]-o-phenylene]dioxy]diacetate trifluoroacetate]	930 nM
O=C(O)COc1ccc(C(=O)CNC(=O)CCCC2CCNCC2)cc1OCC(=O)O [Example 36, [[4-[[N-[4-(piperidin-4-yl)butyryl]amino]acetyl]-o-phenylene]dioxy]diaceticacid trifluoroacetate]	9000 nM
CN(CC(=O)c1ccc(OCC(=O)O)c(OCC(=O)O)c1)C(=O)CC1CCNCC1 [Example 37, [[4-[[N-[2-(piperidin-4-yl)acetyl]-N-methylamino]acetyl]-o-phenylene]dioxy]diacetic acid trifluoroacetate]	4900 nM
O=C(O)CCc1ccc(C(=O)CNC(=O)CCC2CCNCC2)cc1 [Example 38, 3-[4-[N-[3-(piperidin-4-yl)propionyl]amino]acetyl]phenylpropionic acid trifluoroacetate]	8000 nM
O=C(O)COc1ccc(CCNC(=O)c2cc3c(s2)CCNC3)cc1 [Example 39, 4-[2-[[(4,5,6,7-tetrahydrothieno[3,2-c]pyridin-2-yl)carbonyl]amino]ethyl]phenoxyacetic acid trifluoroacetate]	260 nM

Same assay, conditions: platelet aggregation, ADP 5 μM inducer

Structure (SMILES)	IC50
O=C(O)COc1ccc(C(=O)CNC(=O)c2cc3c(s2)CCNC3)cc1OCC(=O)O [Example 29, [[4-[[[(4,5,6,7-tetrahydrothieno[3.2-c]pyridin-2-yl)carbonyl]amino]acetyl]-o-phenylene]dioxy]diacetic acid trifluoroacetate]	230 nM
